# Key:
# [1] = test system: S. spectabilis; experiment: Effect of SAM on spectinomycin production (Exp. 9); type: cell-based; settings: 1 mM SAM, incubation for 5 days, 30° C.
# Protocol: (§1) Each Streptomyces species was incubated in its corresponding culture medium according to Table 1, and treated with 1 mM of SAM (Sigma, USA). After incubation for 5 days, antibiotic concentration was measured in each culture medium.
# [2] = test system: S. aureofaciens; experiment: Effect of SAM on tetracycline production (Exp. 12); type: cell-based; settings: 1 mM SAM, incubation for 5 days, 28° C.
# Protocol: as §1
# [3] = test system: S. peucetius; experiment: Effect of SAM on doxorubicin production (Exp. 10); type: cell-based; settings: 1 mM SAM, incubation for 5 days, 30° C.
# Protocol: as §1
# [4] = test system: S. griseus; experiment: Effect of SAM on streptomycin production (Exp. 11); type: cell-based; settings: 1 mM SAM, incubation for 5 days, 30° C.
# Protocol: as §1
# [5] = test system: S. aureofaciens; experiment: Effect of SAM on chlortetracycline production (Exp. 13); type: cell-based; settings: 1 mM SAM, incubation for 5 days
# Protocol: as §1
# [6] = test system: S. avermitilis; experiment: Effect of SAM on avermectin production (Exp. 7); type: cell-based; settings: 1 mM SAM, incubation for 5 days, 25° C.
# Protocol: as §1
# [7] = test system: S. lividans TK23; experiment: Effect of externally added SAM on productivity of actinorhodin; type: cell-based, Streptomyces lividans; settings: wild type S. lividans TK23, 1 mM commercially available SAM, FIG. 5
# Protocol: Based on the finding that in vivo over-expressed SAM positively affects production yield of actinorhodin in S. lividans TK23, an effect of SAM on productivity of actinorhodin was investigated when commercially available SAM is added directly to culture medium containing S. lividans TK23. As such, wild type S. lividans TK23 was treated with 1 mM of commercially available SAM.
# [8] = test system: S. cinnamonensis; experiment: Effect of SAM on monensin production (Exp. 8); type: cell-based; settings: 1 mM SAM, incubation for 5 days, 30° C.
# Protocol: as §1
# [9] = test system: S. lividans TK23; experiment: Actinorhodin production in S. lividans TK23 transformed with pSAM-s; type: cell-based, Streptomyces lividans; settings: over-expression of SAM-s, incubation for 7 days at 28° C., FIG. 4
# Protocol: The gene encoding “SAM-s” was first inserted into pWHM3, which is a shuttle vector between E. coli and Streptomyces species, giving an expression vector pSAM-s. The plasmid pSAM-s was then introduced into S. lividans TK23. The resulting transformant, Streptomyces lividans TK-23 harboring pSAM-s, was deposited in the Korean Culture Center of Microorganisms with accession No. KCCM 10397 on Jul. 2, 2002. The transformant was incubated in one liter of a medium including 50 g of glycerol, 5 g of glutamic acid, 21 g of morpholinopropane sulfonic acid, 200 mg of MgSO47H2O, 100 mg of CaCl22H2O, 100 mg NaCi, 82 mg KH2PO4, 9 mg FeSO47H2O, and 2 ml of trace element solution, adjusted to pH 6.5. During incubation for 7 days at 28° C., production yield of actinorhodin, which is a main antibiotic produced from S. lividans TK23, was analyzed.
# [10] = Assay for activity of SAM-s (HPLC analysis of reaction products); type: biochemical, Streptomyces spectabilis ATCC 27741; settings: protein expressed in E. coli, 5 mM ATP, 5 mM methionine, 120 min at 30° C.
# Protocol: In order to analyze activity of “SAM-s”, the gene encoding “SAM-s” was expressed in E. coli, and the resulting translational product, “SAM-s”, was then isolated.
# To express the gene encoding “SAM-s” in E. coli, the gene was inserted into a pET-21a vector, and then introduced into E. coli BL21. The expressed gene product, “SAM-s” was isolated using a His-Tag purification system. Thereafter, 10 to 50 μl of the enzyme solution containing the protein “SAM-s” was added to a reaction mixture containing 100 mM of Tris-HCl, 200 mM of KCl, 10 mM of MgCl2, 1 mM DTT, 5 mM ATP, and 5 mM methionine, followed by incubation for 120 min at 30° C. After the incubation, reaction products were analyzed through HPLC using Reverse C18 column. In this regard, the column loaded with sample was initially equilibrated with a solution of 0.1 M of NaH2PO4/acetonitrile at a ratio of 98:2 (V/V), pH 2.65. Then, a second solution comprising 0.15 M NaH2PO4/acetonitrile at a ratio of 74:26 (V/V) was applied with continuous mixing with the first solution, forming a concentration gradient.
Molecule,"Production amount of a treatment group, Spectinomycin [1]","Production amount of a treatment group, Tetracycline [2]","Production amount of a treatment group, Doxorubicin [3]","Production amount of a treatment group, Streptomycin [4]","Production amount of a treatment group, Chlortetracycline [5]","Production amount of a treatment group, Avermectin [6]",actinorhodin production versus control not treated with SAM [7],"Production amount of a treatment group, Monensin [8]",production of actinorhodin in the transformant in comparison with wild type S. lividans [9],activity to synthesize SAM [10]
"C[S+](CC[C@H](N)C(=O)O)C[C@H]1O[C@@H](n2cnc3c(N)ncnc32)[C@H](O)[C@@H]1O (stereo partly drawn) [SAM, S-adenosyl-L-methionine]",35 µg/mL,188 µg/mL,300 µg/mL,602 µg/mL,130 µg/mL,25 µg/mL,produces more actinorhodin,180 µg/mL,,
"SAM-s: enzyme catalyzing SAM biosynthesis from Streptomyces spectabilis ATCC 27741, SEQ ID NO. 2 (protein, Steptomyces spectabilis ATCC 27741) MSRRLFTSESVTEGHPDKIADQISDTILDALLREDPTSRVAVETLITTGLVHVAGEVTTKAYAPIAQLVREKILEIGYDSSKKGFDGASCGVSVSIGAQSPDIAQGVDTAYESRVEGDEDELDRQGAGDQGLMFGYACDETPELMPLPIHLAHRLSRRLSEVRKNGTIPYLRPDGKTQVTIEYDGDKAVRLDTVVVSSQHASDIDLESLLAPDIREFVVEPELKALVEDGIKLVVEPELKALVEDGIKLETEGYRLLVNPTGRFEIGGPMGDAGLTGRKIIIDTYGGMSRHGGGAFSGKDPSKVDRSAAYAMRWVAKNVVAAGLASRCEVQVAYAIGKAEPVGLFVETFGTNTIDTDKIEQAISEVFDLRPAAIIRSLDLLRPIYSQTAAYGHFGRSLPEFTWEKTDRVDALRKAAGLES",,,,,,,,,over six times,has an activity to synthesize SAM
